The values below come from patent US9458135B2, “Dihydroquinoline-2-one derivatives” (Hoffmann-La Roche Inc., priority 2014, dated 2016).

The test system of assay [1] is rats with experimental heart failure. The conditions noted are these: cited from earlier work.
Assay [2] has as its system rat model of chronic kidney disease. The conditions noted are these: cited from earlier work; for plasma aldosterone: FAD286 following 4 weeks of treatment, spironolactone at 4 and 8 weeks; for renal effects (albuminuria, azotemia, renovascular hypertrophy, glomerular injury, PAI-1 and osteopontin mRNA, tubulointerstitial fibrosis): angiotensin II and high salt treatment.

The subject of assay [3] is patients with primary aldosteronism. The conditions noted are these: cited from earlier work.
Assay [4] concerns the target human CYP11B1 (Homo sapiens (Human), UniProt P15538). The assay is described as follows: G-402 cellular enzyme assay, human CYP11B1 (cortisol release, HTRF). Type of assay: cell-based. The conditions noted are these: G-402 cells expressing human CYP11B1; 1 μM Deoxycortisol. From the text:
(§1) Herein we identified the use of the G-402 cell line as a host cell to ectopically express (transiently or stably) enzymes of the CYP11 family. Specifically we developed stable G-402 cells expressing ectopically human CYP11B1, human CYP11B2, human CYP11A1, cynmolgus CYP11B1 or cynomolgus CYP11B2 enzyme activity. Importantly the identified cell line G-402 expresses co-factors (adrenodoxin and adrenodoxin reductase) important for the activity of the CYP11 family and no relevant enzyme activity of the CYP11 family (in comparison to H295R cells) was detected in these cells. Therefore the G-402 cell line is uniquely suited as a host cell for the ectopic expression of enzymes from the CYP11 family.
(§2) The expression plasmids contains the ORF for either huma/cyno CYP11B1 or CYP11B2 under the control of a suitable promoter (CMV-promoter) and a suitable resistance marker (neomycin). Using standard techniques the expression plasmid is transfected into G-402 cells and these cells are then selected for expressing the given resistance markers. Individual cell-clones are then selected and assessed for displaying the desired enzymatic activity using 11-Deoxycorticosterone (Cyp11B2) or 11-Deoxycortisol (Cyp11B1) as a substrate.
(§3) G-402 cells expressing CYP11 constructs were established as described above and maintained in McCoy's 5a Medium Modified, ATCC Catalog No. 30-2007 containing 10% FCS and 400 μg/ml G418 (Geneticin) at 37° C. under an atmosphere of 5% CO2/95% air. Cellular enzyme assays were performed in DMEM/F12 medium containing 2.5% charcoal treated FCS and appropriate concentration of substrate (0.3-10 uM 11-Deoxycorticosterone, 11-Deoxycortisol or Corticosterone). For assaying enzymatic activity, cells were plated onto 96 well plates and incubated for 16 h. An aliquot of the supernatant is then transferred and analyzed for the concentration of the expected product (Aldosterone for CYP11B2; Cortisol for CYP11B1). The concentrations of these steroids can be determined using HTRF assays from CisBio analyzing either Aldosterone or Cortisol.
(§4) Inhibition of the release of produced steroids can be used as a measure of the respective enzyme inhibition by test compounds added during the cellular enzyme assay. The dose dependent inhibition of enzymatic activity by a compound is calculated by means of plotting added inhibitor concentrations (x-axes) vs. measured steroid/product level (y-axes). The inhibition is then calculated by fitting the following 4-parameter sigmoidal function (Morgan-Mercer-Flodin (MMF) model) to the raw data points using the least squares method:
(§5) [formula] wherein, A is the maximum y value, B is the EC50 factor determined using XLFit, C is the minimum y value and D is the slope value.
(§6) EC50 values for compounds claimed herein were tested with the G402-based assay system described. Cyp11B2 enzyme activity was tested in presence of 1 μM Deoxycorticosterone and variable amounts of inhibitors; Cyp11B1 enzyme activity was tested in presence of 1 μM Deoxycortisol and variable amounts of inhibitors.
In general terms: TR-FRET usually uses a lanthanide donor and a delayed reading to cut background.

For assay [5], the target named is human CYP11B2 (Homo sapiens (Human), UniProt P19099). The assay is described as follows: G-402 cellular enzyme assay, human CYP11B2 (aldosterone release, HTRF). Format: cell-based. The settings on record: G-402 cells expressing human CYP11B2; 1 μM Deoxycorticosterone.
Description: as §1, §2, §3, §4, §5, §6

Each structure is given as a SMILES string.

human CYP11B1, sequence (P15538 25-503): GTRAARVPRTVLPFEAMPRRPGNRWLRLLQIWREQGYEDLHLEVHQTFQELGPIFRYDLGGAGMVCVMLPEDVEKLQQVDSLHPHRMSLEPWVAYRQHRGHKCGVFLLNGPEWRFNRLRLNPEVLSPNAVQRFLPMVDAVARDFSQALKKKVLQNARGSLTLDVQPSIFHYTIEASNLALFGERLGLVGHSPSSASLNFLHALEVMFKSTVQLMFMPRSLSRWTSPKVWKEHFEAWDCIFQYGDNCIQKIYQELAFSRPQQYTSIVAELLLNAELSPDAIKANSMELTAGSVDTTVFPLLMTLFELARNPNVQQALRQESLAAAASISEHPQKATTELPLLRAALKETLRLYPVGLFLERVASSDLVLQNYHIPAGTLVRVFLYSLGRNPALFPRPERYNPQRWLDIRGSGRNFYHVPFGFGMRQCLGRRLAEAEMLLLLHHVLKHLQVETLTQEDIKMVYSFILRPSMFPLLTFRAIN
human CYP11B2, sequence (P19099 25-503): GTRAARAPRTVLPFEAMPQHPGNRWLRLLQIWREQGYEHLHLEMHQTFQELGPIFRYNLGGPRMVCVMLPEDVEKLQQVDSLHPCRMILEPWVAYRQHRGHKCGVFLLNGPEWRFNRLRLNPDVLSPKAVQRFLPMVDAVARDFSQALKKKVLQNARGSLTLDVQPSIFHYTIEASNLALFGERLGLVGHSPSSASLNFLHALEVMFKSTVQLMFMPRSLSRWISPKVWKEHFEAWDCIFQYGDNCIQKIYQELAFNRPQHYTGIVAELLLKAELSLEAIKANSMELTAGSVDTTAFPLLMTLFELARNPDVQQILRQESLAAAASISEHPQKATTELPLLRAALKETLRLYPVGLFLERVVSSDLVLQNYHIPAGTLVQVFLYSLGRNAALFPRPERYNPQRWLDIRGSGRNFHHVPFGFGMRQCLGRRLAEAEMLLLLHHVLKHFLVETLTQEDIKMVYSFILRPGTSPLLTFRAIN

Consider `N#Cc1ccc([C@H]2CCCc3cncn32)cc1` [FAD286], for which, in assay [1], the “blood pressure and cardiovascular function and structure” value was “improved”; the “kidney function and morphology” value is given as “improve”. In assay [2], the plasma aldosterone entry is recorded as “reduced”; the “renal effects (albuminuria, azotemia, renovascular hypertrophy, glomerular injury, PAI-1 and osteopontin mRNA, tubulointerstitial fibrosis)” value is “prevented these renal effects”; the “angiotensin II and salt-stimulated PAI-1 mRNA expression in the aorta and the heart” value was “not”.

For the molecule `N#Cc1ccc([C@H]2CCc3cncn32)c(F)c1` [LCI699], the “selectivity (effects on the glucocorticoid axis)” value in assay [3] was “poor selectivity”. In assay [3] (oral), the blood pressure entry is “mildly decreased”, the circulating aldosterone levels entry is “significantly lower” and the hypokalemia result is “corrected”.

With `Cc1cccc(OCc2cncc(-c3ccc4c(c3)CCC(=O)N4C)c2)n1` [Example 3, 1-Methyl-6-[5-(6-methyl-pyridin-2-yloxymethyl)-pyridin-3-yl]-3,4-dihydro-1H-quinolin-2-one], the values for the concentration for a half-maximal effect (EC50) in assay [4] and in assay [5] were 4.8 nM and 0.1 nM, respectively.

In the case of `CN1C(=O)CCc2cc(-c3cncc(CSc4ncccc4C(F)(F)F)c3)ccc21` [Example 15, 1-Methyl-6-[5-(3-trifluoromethyl-pyridin-2-ylsulfanylmethyl)-pyridin-3-yl]-3,4-dihydro-1H-quinolin-2-one], the 50% effective concentration (EC50) – broadly, the concentration that produces a half-maximal response – in assay [4] worked out at 14.3 nM; in assay [5], 0.5 nM.

Consider `CN1C(=O)CCc2cc(-c3cncc(CSc4nc5ccccc5o4)c3)ccc21` [Example 13, 6-[5-(Benzooxazol-2-ylsulfanylmethyl)-pyridin-3-yl]-1-methyl-3,4-dihydro-1H-quinolin-2-one], for which the EC50 in assay [4] came out at 0.9 nM; in assay [5], 0.3 nM.

As for `Cc1c(COc2cccc(F)n2)cncc1-c1cc2c(cc1F)N(C)C(=O)CC2` [Example 27, 7-Fluoro-6-[5-(6-fluoro-pyridin-2-yloxymethyl)-4-methyl-pyridin-3-yl]-1-methyl-3,4-dihydro-1H-quinolin-2-one], the figures for the EC50 in assay [4] and in assay [5] were 20.8 nM and 0.2 nM, respectively.

For `CN1C(=O)CCc2cc(-c3cncc(CC(=O)Nc4cccc(Cl)c4)c3)ccc21` [Example 29, N-(3-Chloro-phenyl)-2-[5-(1-methyl-2-oxo-1,2,3,4-tetrahydro-quinolin-6-yl)-pyridin-3-yl]-acetamide], the figures for the EC50 in assay [4] and in assay [5] were 307 nM and 12.7 nM, respectively.

`CC(=O)S[C@@H]1CC2=CC(=O)CC[C@]2(C)[C@H]2CC[C@@]3(C)[C@@H](CC[C@@]34CCC(=O)O4)[C@H]12` [spironolactone]: in assay [2], the plasma aldosterone result was “increased”; the “renal effects (albuminuria, azotemia, renovascular hypertrophy, glomerular injury, PAI-1 and osteopontin mRNA, tubulointerstitial fibrosis)” value is “prevented these renal effects”; the “angiotensin II and salt-stimulated PAI-1 mRNA expression in the aorta and the heart” value is recorded as “enhanced”.

Regarding `CN1C(=O)CCc2cc(-c3cncc(CC(=O)Nc4cccc(Cl)n4)c3)ccc21` [Example 30, N-(6-Chloro-pyridin-2-yl)-2-[5-(1-methyl-2-oxo-1,2,3,4-tetrahydro-quinolin-6-yl)-pyridin-3-yl]-acetamide], the EC50 in assay [4] is 40.5 nM; in assay [5], 6.8 nM.

Regarding `Cc1cc(OCc2cncc(-c3ccc4c(c3)CCC(=O)N4C)c2)nc(C(F)(F)F)c1` [Example 4, 1-Methyl-6-[5-(4-methyl-6-trifluoromethyl-pyridin-2-yloxymethyl)-pyridin-3-yl]-3,4-dihydro-1H-quinolin-2-one], the figures for the EC50 in assay [4] and in assay [5] were 3.6 nM and 0.4 nM, respectively.
